Where a name gives a salt, the structure may show the parent alone. Read-outs that look alike come from different tables or passages of the source.
Experiments:
human 5HT1A receptor = target: T1, human 5HT1A receptor (Homo sapiens, UniProt P08908); test: Binding to human 5HT1A receptor ([3H]-8OH-DPAT displacement, HeLa HA7 cell line); settings: read-out: 5HT1A Ki (affinity for the receptors concerned)
T1 construct: host or cells: HeLa HA7
T1 sequence (P08908 1-422): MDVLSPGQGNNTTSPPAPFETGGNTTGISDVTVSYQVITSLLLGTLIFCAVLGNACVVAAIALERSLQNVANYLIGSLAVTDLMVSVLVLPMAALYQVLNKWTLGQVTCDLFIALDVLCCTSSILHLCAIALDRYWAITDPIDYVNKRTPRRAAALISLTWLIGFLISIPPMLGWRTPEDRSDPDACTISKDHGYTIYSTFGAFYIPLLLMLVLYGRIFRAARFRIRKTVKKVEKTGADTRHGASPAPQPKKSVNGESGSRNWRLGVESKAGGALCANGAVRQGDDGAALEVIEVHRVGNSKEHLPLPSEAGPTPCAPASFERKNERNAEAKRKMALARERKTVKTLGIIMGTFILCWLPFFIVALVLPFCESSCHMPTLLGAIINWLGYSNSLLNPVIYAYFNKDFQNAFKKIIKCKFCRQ
Description: The binding of the derivatives of the present invention with the human 5HT1Dα, 5HT1Dβ and 5HT1A receptors was studied according to the method described by P. Pauwels and C.

human 5HT1Dβ receptor [1] = target: T2, human 5HT1Dβ receptor (Homo sapiens, UniProt P28222); test: Binding to human 5HT1Dβ receptor ([3H]-5CT displacement)
T2 construct: expressed in transfected cells; host or cells: CHO-K1
T2 sequence (P28222 whole entry): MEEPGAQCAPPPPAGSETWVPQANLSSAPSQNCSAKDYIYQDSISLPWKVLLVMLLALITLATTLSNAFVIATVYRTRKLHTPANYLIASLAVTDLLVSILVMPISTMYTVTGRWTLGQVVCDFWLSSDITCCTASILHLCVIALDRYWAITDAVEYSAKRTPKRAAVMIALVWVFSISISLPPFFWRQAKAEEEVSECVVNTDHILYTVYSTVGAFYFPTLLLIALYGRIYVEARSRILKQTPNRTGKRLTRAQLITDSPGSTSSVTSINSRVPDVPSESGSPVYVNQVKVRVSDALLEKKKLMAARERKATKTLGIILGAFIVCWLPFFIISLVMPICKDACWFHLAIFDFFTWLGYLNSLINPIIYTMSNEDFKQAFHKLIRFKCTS
Experimental: (§1) Human 5HT1Dα and 5HT1Dβ receptors were cloned according to the sequences published by M. Hamblin and M. Metcalf, Mol. Pharmacol., 40, 143 (1991) and Weinshenk et al., Proc. Natl. Acad. Sci. 89, 3630 (1992).
(§2) Transitory transfection and permanent transfection of the genes for these receptors was carried out in cell lines Cos-7 and CHO-K1 using an electroporator.
(§3) The binding of the derivatives of the present invention with the human 5HT1Dα, 5HT1Dβ and 5HT1A receptors was studied according to the method described by P. Pauwels and C. Palmier (Neuropharmacology, 33, 67, 1994).
(§4) The incubation media for these binding measurements comprise 0.4 ml of cell membrane preparation, 0.05 ml of a tritiated ligand [[3H]-5CT (final concentration: 2 nM) for the 5HT1Dα and 5HT1Dβ receptors and [3H]-8OH-DPAT (final concentration: 1 nM) for the 5HT1A receptor] and 0.05 ml of the test molecule (final concentrations of 0.1 nM to 1000 nM) or 10 μM (final concentration) of serotonin (5HT1Dα and 5HT1Dβ) or 1 μM (final concentration) of spiroxatrine (5HT1A).

human 5HT1Dβ receptor [2] = target: T2, human 5HT1Dβ receptor; test: Inhibition of forskolin-stimulated cyclic AMP formation mediated by human 5HT1Dβ receptor in transfected CHO-K1 cells (intrinsic agonist activity); assay type: cell-based
Experimental: as §1, §2
Inhibition of the formation of cyclic AMP (stimulated by forskolin) mediated by the human 5HT1Dβ receptor was studied in CHO-K1 cells transfected with the receptor according to the technique described beforehand for the 5HT1B receptor (P. Pauwels and C. Palmier, Neuropharmacology, 33, 67, 1994).
**Intrinsic agonist acitivity (inhibition of the formation of cyclic AMP
induced by forskolin in CHO--K1 cells).

human 5HT1Dα receptor = target: T3, human 5HT1Dα receptor (Homo sapiens, UniProt P28221); test: Binding to human 5HT1Dα receptor ([3H]-5CT displacement)
T3 construct: expressed in transfected cells
T3 sequence (P28221 whole entry): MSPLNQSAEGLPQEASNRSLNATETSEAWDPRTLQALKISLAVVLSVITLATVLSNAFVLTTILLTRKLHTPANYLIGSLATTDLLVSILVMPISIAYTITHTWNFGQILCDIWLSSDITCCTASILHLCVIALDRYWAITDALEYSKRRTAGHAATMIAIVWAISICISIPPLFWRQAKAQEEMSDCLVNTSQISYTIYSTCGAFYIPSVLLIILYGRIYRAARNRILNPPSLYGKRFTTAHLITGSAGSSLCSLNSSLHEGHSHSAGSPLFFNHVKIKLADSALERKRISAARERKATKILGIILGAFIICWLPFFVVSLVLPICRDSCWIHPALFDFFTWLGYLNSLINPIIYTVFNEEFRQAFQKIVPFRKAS
Experimental: as §1, §2, §3, §4

[3] = [3H]-8OH-DPAT 1 nM, HeLa HA7 cell line
[4] = [3H]-5CT 2 nM, cell membrane preparation, read-out: 5HT1Dβ Ki (affinity for the receptors concerned)
[5] = CHO-K1 cells, forskolin stimulated, read-out: 5HT1Dβ EC50 (intrinsic agonist activity, inhibition of the formation of cyclic AMP induced by forskolin)
[6] = [3H]-5CT 2 nM, cell membrane preparation, read-out: 5HT1Dα Ki (affinity for the receptors concerned)

Compound	Ki (human 5HT1A receptor; [3]) [nM]	Ki (human 5HT1Dβ receptor [1]; [4]) [nM]	EC50 (human 5HT1Dβ receptor [2]; [5]) [nM]	Ki (human 5HT1Dα receptor; [6]) [nM]	Ki (human 5HT1A receptor) [nM]	Ki (human 5HT1Dβ receptor [1]) [nM]	EC50 (human 5HT1Dβ receptor [2]) [nM]	Ki (human 5HT1Dα receptor) [nM]
COc1ccc(N2CCN(C(=O)Nc3ccc(OC)c(N4CCN(C)CC4)c3)CC2)cc1 [Example 3, fumarate]	1000	8.4	> 1000	230	–	–	–	–
COc1ccc(NC(=O)N2CCN(c3ccc([N+](=O)[O-])cc3)CC2)cc1N1CCN(C)CC1 [Example 6, N-[4-[4-Methoxy-3-(4-methylpiperazin-1-yl)phenyl]-4-(p-nitrophenyl)piperazin-1-ylamide fumarate]	457	5	> 1000	114	–	–	–	–
COc1ccc(NC(=O)N2CCN(c3ccc4c(c3)OCO4)CC2)cc1N1CCN(C)CC1 [Example 7, N-[4-Methoxy-3-(4-methylpiperazin-1-yl)phenyl]-4-(3,4-methylenedioxy)phenylpiperazin-1-ylamide difumarate]	786	8.2	> 1000	140	–	–	–	–
COc1ccc(NC(=O)N2CCN(c3ccccc3C#N)CC2)cc1N1CCN(C)CC1 [Example 8, N-[4-Methoxy-3-(4-methylpiperazin-1-yl)phenyl]-4-(o-cyanophenyl)piperazin-1-ylamide fumarate]	714	11.2	> 1000	120	–	–	–	–
COc1ccc(NCC(=O)N2CCN(c3ccccc3C)CC2)cc1N1CCN(C)CC1 [Example 12, 2-[4-Methoxy-3-(4-methylpiperazin-1-yl)phenylamino]-1-(4-o-tolylpiperazin-1-yl)ethanone fumarate]	–	28	> 1000	420	3000	–	–	–
CN1CCN(c2cccc3ccc(OC(=O)N4CCN(c5ccccc5)CC4)cc23)CC1 [Example 19, 8-(4-Methylpiperazin-1-yl)naphthalen-2-yl 4-phenylpiperazin-1-yloate]	16	–	–	–	–	0.5	> 1000	2.8

Further lines, with some results ahead:

Ki (human 5HT1A receptor; [3]) [nM]	Ki (human 5HT1Dβ receptor [1]; [4]) [nM]	EC50 (human 5HT1Dβ receptor [2]; [5]) [nM]	Ki (human 5HT1Dα receptor; [6]) [nM]	Compound	Ki (human 5HT1A receptor) [nM]	Ki (human 5HT1Dβ receptor [1]) [nM]	EC50 (human 5HT1Dβ receptor [2]) [nM]	Ki (human 5HT1Dα receptor) [nM]
396	2.3	> 1000	48	COc1ccc(NC(=O)N2CCN(c3ccccc3C)CC2)cc1N1CCN(C)CC1 [Example 1, N-[4-methoxy-3-(4-methylpiperazin-1-yl)phenyl]-4-(o-tolylpiperazin-1-ylamide fumarate]	–	–	–	–
–	2	> 1000	68	COc1ccc(NC(=O)N2CCN(c3ccccc3OC)CC2)cc1N1CCN(C)CC1 [Example 2, N-[4-Methoxy-3-(4-methylpiperazin-1-yl)phenyl]-4-(o-methoxyphenyl)piperazin-1-ylamide fumarate]	–	–	–	–
557	1.2	> 1000	42	COc1ccc(NC(=O)N2CCN(c3cccc(C)c3C)CC2)cc1N1CCN(C)CC1 [Example 5, fumarate]	–	–	–	–
50	0.28	> 1000	0.68	Cc1ccccc1N1CCN(C(=O)COc2ccc3cccc(N4CCN(C)CC4)c3c2)CC1 [Example 16, 2-[8-(4-Methylpiperazin-1-yl)naphthalen-2-yloxy]-1-(4-o-tolylpiperazin-1-yl)ethanone]	–	–	–	–

Reference: patent publication US5789412A, “Piperazides derived from arylpiperazine, processes for their preparation, their use as medicaments and pharmaceutical compositions comprising them” (Pierre Fabre Medicament, priority 1994, dated 1998)
